The text below walks through data of ChEMBL document CHEMBL1201862, “PubChem BioAssay data set” (2004).

Holding throughout (experiment): inhibition of tumour cell growth, NCI panel, 48 h
Experiment [1] concerns SF-295.
Experiment [2] has as its system NCI/ADR-RES.
The subject of experiment [3] is SK-MEL-28.
The test system of experiment [4] is LXFL 529.
Experiment [5] concerns OVCAR-8.
Experiment [6] concerns T47D.
Experiment [7] deals with HCT-15.
Experiment [8] concerns NCI-H23.
Experiment [9] deals with HCT-116.
For experiment [10], the system named is ACHN.
Experiment [11] has as its system SF-539.
Experiment [12] has as its system SN12C.
For experiment [13], the system named is HOP-18.
The test system of experiment [14] is HL-60.
Experiment [15] deals with UO-31.
The test system of experiment [16] is CCRF-CEM.
Experiment [17] relates to BT-549.
In experiment [18] the test system is HOP-62.
The subject of experiment [19] is MDA-MB-435.
The test system of experiment [20] is K562.

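Results reflect a 48-hour exposure of cells in 96-well plates to compound at five concentrations. GI50 = concentration required for 50% inhibition of growth.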 Calls of active or inactive are those of the source. Rule as the data show it: active = GI50 up to about 1.1 µM and inactive = higher.

`CN(C)CCCNc1ccc2nnn3c4ccc([N+](=O)[O-])cc4c(=O)c1c23`: the GI50 is 1420 nM (inactive) in experiment [1]; 685 nM (active) in experiment [2]; 4600 nM (inactive) in experiment [3]; 1220 nM (inactive) in experiment [4]; 597 nM (active) in experiment [5]; 11400 nM (inactive) in [6]. Besides, the GI50 is 916 nM in experiment [7]; 2030 nM (inactive) in experiment [8]; 404 nM (active) in experiment [9]; 542 nM (active) in experiment [10]; 2130 nM (inactive) in experiment [11]; 695 nM (active) in experiment [12]. In addition, the GI50 in [13] is 729 nM (active); in [14] it was 1830 nM (inactive); in [15] it was 1280 nM (inactive); in experiment [16], 785 nM (active); in experiment [17], 5260 nM (inactive); in [18] it was 817 nM (active). The GI50 in [19] is 1490 nM (inactive); in experiment [20], 589 nM (active).
